Results: PubChem BioAssay AID1963959 (Molecular Pharmacology Branch, DTP, NCI, 2024)

Test system: T-47D spheroids with HUVEC/MSC, viability
Assay: Anticancer human tumor T-47D cell line growth inhibition [PI3K];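 further: spheroids exposed to agents for seven days before reading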;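 on viability, T/C: percent of DMSO vehicle control luminescence so 100% = untreated growth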
Conditions: for IC50: curve of first compound; for viability, T/C: stronger effect = lower value
Description: Combinatorial screen of targeted agents with the PI3K inhibitors inavolisib, alpelisib, duvelisib, and copanlisib in multi-cell type tumor spheroids
A high-throughput screen of multi-cell type tumor spheroids was designed to identify active combinations of targeted small molecules and PI3K pathway inhibitors. Complex spheroids include a stromal component modeled by human endothelial cells (HUVEC) and fibroblasts modeled by human mesenchymal stem cells (MSCs). The concentration ranges selected for each drug and investigational agent were based upon clinically achievable concentrations if the clinical Cmax of the agent was known.
Compounds. The drugs and investigational agents: inavolisib (NSC800729), alpelisib (NSC765974), duvelisib (NSC772469), copanlisib (NSC816437), ipatasertib (NSC767898), afuresertib (NSC778305), talazoparib (NSC767125), sapanisertib (NSC764658), selumetinib (NSC741078), tovorafenib (DAY101, NSC766906), vemurafenib (NSC761431), ravoxertinib (NSC781343), sotorasib (NSC818433), MRTX1133 (NSC 836407), abemaciclib (NSC 768073), palbociclib (NSC758247), venetoclax (NSC 766270), SY5609 (NSC837396), enzalutamide (NSC755605), and darolutamide (NSC825331), were obtained from the National Cancer Institute (NCI) Developmental Therapeutics Program Chemical Repository. The FDA-approved anticancer drug set is available from the NCI Developmental Therapeutics Program. […] The stock solutions were prepared in dimethyl sulfoxide (DMSO, Sigma-Aldrich, St. Louis, MO, cat. D2650) at 800-fold the tested concentration and stored at -70 degrees C prior to their use. All drugs and investigational agents were tested over a range starting from a high concentration at or near the clinical Cmax and decreasing in half-log increments. If the clinical Cmax for an agent had not been determined, the highest concentration tested was 10 microM.
Cell Culture. All cells were maintained in an incubator at 37 degrees C and 5% CO2 with 95% humidity. The PDC lines were cultured according to standard operating procedures established by the NCI PDMR (https://pdmr.cancer.gov/sops/default.htm). All PDCs were thawed and cultured in Matrigel-coated flasks prepared with a working solution of 1X Ham's F-12 nutrient mix, without supplementation (Invitrogen, Waltham, MA, cat. 11765054), 100 U/mL penicillin-streptomycin (Invitrogen, cat. 15140122), and 2.5% Matrigel (Corning Inc., Corning, NY, cat. 354248) for the first three passages. The 354836-022-R-J1-PDC, 475296-252-R-J1-PDC, and 997726-040-R-J2-PDC lines were cultured in 6A media, which includes advanced DMEM/F-12 (Thermo Fisher Scientific, cat. 12634028), 10 mM HEPES (Thermo Fisher Scientific, cat. 15630080), 1X GlutaMAX supplement (Thermo Fisher Scientific, cat. 35050061), 0.1 mg/mL primocin (InvivoGen, San Diego, CA, cat. ant-pm-2), 10% defined fetal bovine serum, heat inactivated (HyClone Laboratories Inc., Logan, UT, cat. SH30070.03HI), 50% L-WRN conditioned media (ATCC, cat. CRL-3276), 1.25 mM N-Acetyl-L-cysteine (Sigma-Aldrich, cat. A9165), 10 mM nicotinamide (Sigma-Aldrich, cat. N0636), 1X B-27 supplement (Thermo Fisher Scientific, cat. 17504044), 1X N-2 supplement (Thermo Fisher Scientific, cat. 17502048), and 10 microM Y-27632 dihydrochloride (Tocris Bioscience, Bristol, United Kingdom, cat. 1254). The 624824-186-R-J2-PDC line was cultured in 6C/Colon 1B media, which includes all 6A media components plus 50 ng/mL human EGF recombinant protein (Thermo Fisher Scientific, cat. PHG0311). […]

With `CC(C)NCC(C(=O)N1CCN(c2ncnc3c2C(C)CC3O)CC1)c1ccc(Cl)cc1` (configuration not stated) + CC(Nc1ccc2c(c1)OCCn1cc(N3C(=O)OCC3C(F)F)nc1-2)C(N)=O the IC50 (second compound 0.00316 µM) was 8.76 µM, the IC50 (second compound 0.01 µM) was > 10 µM and the IC50 (second compound 0.0316 µM) was > 10 µM. The IC50 (second compound 0.1 µM) was 3.89 µM, the IC50 (second compound 0.316 µM) was 2.42 µM and the IC50 (second compound 1 µM) was 0.0626 µM. The viability, T/C (second compound 0.00316 µM, first compound 0.0316 µM) was 109%, the viability, T/C (second compound 0.00316 µM, first compound 0.1 µM) was 96.1% and the viability, T/C (second compound 0.00316 µM, first compound 0.316 µM) was 82.7%. The viability, T/C (second compound 0.00316 µM, first compound 1 µM) was 80.5%, the viability, T/C (second compound 0.00316 µM, first compound 3.16 µM) was 60.5% and the viability, T/C (second compound 0.00316 µM, first compound 10 µM) was 48%. It also gave a viability, T/C (second compound 0.01 µM, first compound 0.0316 µM) of 94.5%, a viability, T/C (second compound 0.01 µM, first compound 0.1 µM) of 94.2% and a viability, T/C (second compound 0.01 µM, first compound 0.316 µM) of 91%. It also gave a viability, T/C (second compound 0.01 µM, first compound 1 µM) of 73.6%, a viability, T/C (second compound 0.01 µM, first compound 3.16 µM) of 66.6% and a viability, T/C (second compound 0.01 µM, first compound 10 µM) of 59%. For the same compound, the viability, T/C (second compound 0.0316 µM, first compound 0.0316 µM) was 102%, the viability, T/C (second compound 0.0316 µM, first compound 0.1 µM) was 95.5% and the viability, T/C (second compound 0.0316 µM, first compound 0.316 µM) was 84.7%. The viability, T/C (second compound 0.0316 µM, first compound 1 µM) was 68.5%, the viability, T/C (second compound 0.0316 µM, first compound 3.16 µM) was 53.7% and the viability, T/C (second compound 0.0316 µM, first compound 10 µM) was 51.6%. The viability, T/C (second compound 0.1 µM, first compound 0.0316 µM) was 94.1%, the viability, T/C (second compound 0.1 µM, first compound 0.1 µM) was 81.2% and the viability, T/C (second compound 0.1 µM, first compound 0.316 µM) was 75.7%. The viability, T/C (second compound 0.1 µM, first compound 1 µM) was 59.3%, the viability, T/C (second compound 0.1 µM, first compound 3.16 µM) was 51.8% and the viability, T/C (second compound 0.1 µM, first compound 10 µM) was 43.6%. For the same compound, the viability, T/C (second compound 0.316 µM, first compound 0.0316 µM) was 63.2%, the viability, T/C (second compound 0.316 µM, first compound 0.1 µM) was 64% and the viability, T/C (second compound 0.316 µM, first compound 0.316 µM) was 56.7%. The viability, T/C (second compound 0.316 µM, first compound 1 µM) was 53.5%, the viability, T/C (second compound 0.316 µM, first compound 3.16 µM) was 50.1% and the viability, T/C (second compound 0.316 µM, first compound 10 µM) was 41.6%. It also gave a viability, T/C (second compound 1 µM, first compound 0.0316 µM) of 51.7%, a viability, T/C (second compound 1 µM, first compound 0.1 µM) of 46.8% and a viability, T/C (second compound 1 µM, first compound 0.316 µM) of 52.2%. For the same compound, the viability, T/C (second compound 1 µM, first compound 1 µM) was 41.4%, the viability, T/C (second compound 1 µM, first compound 3.16 µM) was 42.3% and the viability, T/C (second compound 1 µM, first compound 10 µM) was 44.3%.
